Results as given in patent US5242900A (priority 1991, dated 1993).

Experiments:
normal dog = format: in vivo
Procedure: (§1) Nine dogs of initially normal body weight were studied in accordance with Institutional Guidelines for animal experiments. Exteriorized, indwelling catheters were placed for intra-portal insulin administration and peripheral venous blood sampling. All were studied initially as normals. Subsequently all were pancreatectomized; five were autografted and the remaining four were treated pharmacologically both with the modified insulins described above in Example 1 and the corresponding unmodified conventional extracted insulins. Small venous blood samples were drawn via the indwelling blood sampling catheter at 30-60 minute intervals for plasma glucose determination in the subcutaneous experiments and at -10,0,3,6,10,20,30,60 minutes in the intravenous experiments. […] All animals were conscious and ambulatory during the studies.
(§2) Plasma glucose was determined using a glucose analyzer (Beckman Instruments, Fullerton, CA). IRI was assayed using porcine insulin standard and ^125 I porcine insulin tracer (Novo Research Institute, Gentofte, Denmark), antiserum and a dextran-coated charcoal separation technique (Albisser et al, Diabetes 35:97-100, 1986). In the studies using porcine phosphorylated insulin, the above assay was performed as for porcine insulin, but using equimolar standards of phosphorylated insulin. Parallel standard curves were obtained. […] All values were expressed as mean ±SEM unless otherwise indicated.

pancreatectomized dogs = test: Subcutaneous studies in pancreatectomized (diabetic) dogs: plasma glucose; format: in vivo
Procedure: as §1
At the conclusion of experimental protocols, it was verified that all nine of the animals were diabetic by extirpating the grafts (from the transplant recipients) or withdrawing insulin therapy (from the pancreatectomized animals).
as §2
Subsequent to pancreatectomy the animals were studied repeatedly, now in the post-absorptive, hyperglycemic state of 14-20 mM, because the conventional insulin depot administered the previous day had become depleted.

With “phosphorylated insulin: porcine insulin chemically phosphorylated with POCl3/phosphoric acid in DMF; 3 or 5 negatively charged adducts; about 5-10% unmodified” the “first pass extraction by the liver compared with insulin” value (normal dog; dog, in vivo) was “not extracted to the same extent”, the hypoglycemic effect (normal dog; normal dog, intra-portal, 2-fold larger dose) was “without major hypoglycemic effect” and the “drop in blood glucose” value (normal dog; normal dog, intra-portal, at 15 minutes) was 0.2 mM. For the same substance, the “decrease in plasma glucose” value (normal dog; normal dog, intra-portal, double dosage) was “about 0.5 mM”, the early hypoglycemia (pancreatectomized dogs; dog, in vivo, sc) was “never occurred” and the “lipo-genesis (fat-like deposits) in the areas of repeated subcutaneous injections” value (pancreatectomized dogs; dog, in vivo, sc) was “palpable fat-like deposits”. For the same substance, the time euglycemia maintained (pancreatectomized dogs; fasted pancreatectomized dog, starting 14-20 mM, subcutaneous, 30-150 nMol) was 2 to 6 h, the “glucose lowering effect at larger dose” value (pancreatectomized dogs; pancreatectomized dog, subcutaneous, 4-fold larger doses) was “occurred more rapidly and lasted longer” and the “plasma glucose lowered to” value (pancreatectomized dogs; pancreatectomized dog, subcutaneous, approximately 4 nMol/kg) was 4.5 to 6.0 mM. The “plasma glucose with repeated injections” value (pancreatectomized dogs; pancreatectomized dog, subcutaneous, smaller dosage repeated at 6-8h intervals) was “maintain plasma glucose in the range normal for postabsorptive dogs” and the “body weight regained after loss following pancreatectomy” value (pancreatectomized dogs; pancreatectomized dogs) was 1 to 3 kg.
